Where a name gives a salt, the structure may show the parent alone. Ends that are not written are not given here. * marks the point of attachment. Biotin = O=C1N[C@H]2[C@H](CS[C@H]2CCCCC(=O)*)N1
Columns and labels:
human platelets [1] = test: Thrombin-induced human platelet aggregation; format: cell-based
Description: Platelets were pelleted from platelet-rich plasma (PRP) by centrifugation for 10 minutes at 200 g. They were then washed with acid citrate dextrose (ACD) (85 mM citric acid, 65 mM sodium citrate, 100 mM glucose, pH 5.1) at a ratio of 1:7 at room temperature. After pelleting the platelets again and removing the supernatant, the platelets were resuspended in 5 mL of Tyrode's buffer (137 mM NaCl, 3 mM KCl, 12 mM NaHCO3, 0.3 mM NaHPO4, 2 mM CaCl2, 1 mM MgCl2, 5.5 mM glucose, 5 mM HEPES, 3.5 mg/mL BSA, pH 7.4). The final platelet number was adjusted to […] in 500 μl/cuvette of Tyrode's buffer.
Aggregation of human platelets under high shear conditions was assessed using a standard optical aggregometer (Lumi-Dual Aggregometer, Chrono-Log Corp., Havertown, Pa.) at 37° C. and 1200 rpm in a volume of 500 μl buffer with a final platelet concentration of 2×10^5 platelets/μl over a 5 minute interval. Pre-incubation with TSP1 and TSP1-based agents was for 15 minutes prior to addition of thrombin and/or the rapidly releasing nitric oxide donor DEA/NO. In some experiments platelets were pre-incubated with the Rap1 inhibitor GGTI-298 (10 μM) (Calbiochem, La Jolla, Calif.) for 30 minutes prior to initiating aggregation. In other high shear aggregation experiments murine platelets were prepared as above with the following modifications. Mouse blood was collected by retro-orbital bleeding of anesthetized mice using heparinized tubes. PRP was prepared and then diluted with 4 vol. of Tyrodes containing 5 mM EDTA to prevent activation. After collection by centrifugation, platelets were resuspended in 2× initial PRP volume and held at room temperature for less than 1 hour before use. Aggregation conditions consisted of 250 μL of washed platelets stirred at 1200 rpm in a Chronolog Optical aggregometer at 37° C. DEA/NO (10 μM) was added 30 seconds prior to activation and 8-BrcGMP added 15 min prior to activation with 0.2 U/ml human thrombin. Data was collected using Chronolog “Aggrolink” software. Platelet aggregation under static conditions was assessed using a spectrophotometer (Beckman DU 640, Beckman Coulter, Fullerton, Calif.) and determined as a change in absorbance at 400 nm with continuous observation over a five minute interval. The cuvette was inverted once every 60 seconds. Pre-incubation with TSP1 and TSP1-based agents was for 15 minutes prior to addition of thrombin and/or DEA/NO to minimize the formation of thrombin-serpinthrombospondin complexes (Chang & Detwiler, Arch Biochem Biophys. 299:100-104, 1992), which interfere with thrombin-platelet interactions.
Fresh human platelets were suspended in Tyrode's buffer and under low shear conditions thrombin-stimulated aggregation measured as described. Platelets were then treated with peptide C6d (1 μM)±NO (10 μM DEA/NO) and thrombin and aggregation measure.

human platelets [2] = test: Human platelet adhesion assay; format: cell-based; conditions: fibrinogen vs collagen, 10 μM
Description: Bacteriological Petri dishes (35×10 mm, Becton Dickinson Labware) were pre-coated with collagen (3 μg/ml) or fibrinogen (15 μg/mL) overnight. Following aspiration of non-adherent matrix, dishes were blocked with 1% BSA. Fresh platelets were washed and suspended in Tyrode's buffer and allowed to adhere for 30 minutes. Plates were washed with PBS, fixed with 0.5% glutaraldehyde and stained with 0.02% toluidine blue. Adherent platelets were counted microscopically. In some experiments platelets were pre-incubated with the Rap1 geranylgeranyltransferase inhibitor GGTI-298 (10 μM) for 30 minutes prior to initiating adhesion.

Rap1 = Rap1 pulldown assay in platelets; format: cell-based, human; conditions: thrombin
Description: Platelets were diluted to 5×10^8 platelets/mL in Tyrode's buffer and treated with various reagents for the indicated times. Immediately following treatment, platelets were pelleted at 13,000 g for 30 seconds at 4° C. and resuspended in ice-cold lysis buffer containing 20 mM HEPES (pH 7.5), 100 mM NaCl, 10 mM EGTA, 20 mM MgCl2, 8 mM α-glycerophosphate, 1% Triton X-100, 1 mM phenylmethylsulfonylfluoride, 40 mM NaF, 1 mM Na3VO4, 10 μg/mL aprotinin, and 10 μg/mL leupeptin. Lysates were centrifuged at 13,000 g for 5 minutes at 4° C. and the supernatants were incubated for 15 minutes on a tumbler at 4° C. with glutathione Sepharose 4B beads (Amersham) prebound with a GST-Ral GDS RBD fusion protein (kind gift of J. Silvio Gutkind, NIH, Bethesda, Md.). Bead complexes were washed by centrifugation at 6,000 g for 30 seconds at 4° C. followed by resuspension in 0.5 mL lysis buffer; 2 washes were performed for each sample. After the second wash, beads were resuspended in an equal volume of 2×SDS sample buffer and stored at −20° C. For Western analysis, bead-bound proteins in sample buffer were boiled for 10 minutes and subjected to electrophoresis on NuPAGE 10% Bis-Tris gels (Invitrogen, Carlsbad, Calif.), transferred to Immobilon-P PVDF membranes (Millipore, Billerica, Mass.), and blotted with rabbit polyclonal anti-Rapt (sc-65; Santa Cruz Biotechnology, Santa Cruz, Calif.).

[3] = test system: blood pressure and pulse in mice; test: Blood pressure and pulse measurements (tail cuff); format: in vivo, mouse
Description: Mean systolic, diastolic and arterial blood pressure (BP) and mean pulse was measured in age and sex matched mice using a computerized tail cuff system (Hatteras Systems, MC4000 Blood Pressure Analysis System, Cary, N.C.). The mice were allowed to acclimate to the apparatus for 5 min prior to the start of measurement. Each animal underwent a cycle of 10 preliminary and 50 experimental pressures measurements for data acquisition and data calculation. Animals were acclimated to the measuring system and protocol for 4 days with treatment with data acquisition being performed on the 5th day. Pressures recordings were performed at the same time each day. Data was accepted if the mouse had valid readings for at least 20 consecutive pulse beats. All studies were performed at the same hour each day.
Respirations were monitored continuously monitored by direct observation of the animal. Body core temperature was measured via rectal probe. Temperature control was performed using a water-circulating warming surface and heating lamp. Following a 15 minute period of stabilization mean systolic, diastolic and arterial blood pressure and mean pulse measurements were determined.

[4] = test system: cutaneous perfusion in mice; format: in vivo, mouse
Description: Skin blood flow was measured using laser Doppler imaging (MoorLD1-2λ, Moor Instruments, Devon, England). Briefly, animals were placed in a prone position on a heating pad, and anesthesia was provided by 2% inhalation isoflurane in a 50:50 mixture of oxygen to room air. Core temperature was monitored by rectal probe and was further controlled with a heat lamp. The hair of the dorsum of the animals was clipped and depilated with Nare™ and a template with a 1 cm^2 area used to trace a region of interest (ROI). After equilibration to the experimental set-up analysis of cutaneous blood flow was obtained. The following instrument settings were used: override distance 21 cm; scan time 4 msec/pixel. Results are expressed as the change percent control from baseline of the ROI.

NO/cGMP signaling = test: cGMP signaling (NO-stimulated cGMP, immunoassay); format: cell-based, human; conditions: concentration for 50% inhibition of effect
Description: Vascular cells (endothelial) or HT-1080 cells (10^4 cells/well) grown overnight in 12-well culture in SM-GM containing 2% FCS or RPMI+10% FCS respectively and then weaned off serum over 48 h before treatment with NO donors and other agents in serum/additive free medium+0.1% BSA. Intracellular cGMP levels were determined using an enzyme immunoassay (Amersham, GE Health Care, UK). In other experiments fresh washed human platelets were incubated in Tyrode's buffer and the indicated treatment agents±NO and cGMP determined.

[5] = test system: VSMC and endothelial cells; test: NO-stimulated adhesion of VSMC and endothelial cells to type I collagen (Example 9); format: cell-based; conditions: 10 μM DEA/NO
Description: Vascular cells (VSMC or endothelial) were plated at 10,000 cells/well onto 96-well plates (Maxisorb, Nunc) precoated with type I collagen (3 μg/ml). […] Plates were then washed with PBS, fixed with glutaraldehyde, stained with crystal violet, and washed. Absorbed stain was solubilized with acetic acid from fixed cells and the resulting color signal determined on a MR580Microelisa Auto Reader, (Dynatech, Alexandria, Va.) at 450 nm wavelength.

[6] = test system: vascular cell outgrowth from muscle explants; test: Explant invasion assay in 3D collagen; format: cell-based, mouse; conditions: wild type and TSP1 null explants, NO 10 μM, peptides 10 μM, NoC1 0.1 μg/ml, day 7
Description: Muscle biopsies from the pectoralis major muscle of 8 to 12 week old wild type or transgenic mice were harvested and explanted into 100 μl of type I collagen gel in 96-well tissue culture plates as described (Isenberg et al., Matrix Biol 24:110-123, 2005). Following gelation, the embedded explants were overlayed with 75 μl of EGM+2% FCS in the presence or absence of a dose range of DETA/NO (0.01-1000 μM) and other indicated treatments and then incubated at 37° C. and 5% CO2 for 7 days, at which time maximum vascular cell migration through the matrix was measured.

HUVEC = test: NO-stimulated HUVEC adhesion on type I collagen; format: cell-based, human; conditions: DEA/NO 10 μM
Description: Cell adhesion was carried out in 96-well culture plates. After pre-coating wells with type I collagen (3 μg/ml in DPBS) harvested cells were plated at a density of 1×10^4 cells/well in medium plus 0.1% BSA and treatment agents and incubated in 5% CO2 for 1 h. Wells were washed with PBS and cells fixed with 1% glutaraldehyde for 10 min., washed and stained with 1% crystal violet for 20 min. Excess stain was rinsed away, adherent cells treated with 10% acetic acid, and plates read at 570 nm.

[7] = test system: murine ASMC (WT, CD36 null, CD47 null); test: Intracellular cGMP in murine ASMC; format: cell-based, mouse
Description: Murine ASMC were obtained from aortic segments harvested sterilely from C57B1/6 CD47 null or CD36 null mice as described (Ray et al., Methods Cell Sci 23:185-188, 2001) and cultured in SM-GM (Cambrex)+20% FCS. In the case of CD36 null cells, culture flasks were pre-coated with 1% gelatin prior to cell plating. Wild type C57B1/6 ASMC cultures were prepared as previously described (Isenberg et al., Matrix Biol 24:110-123, 2005). Cell culture purity was determined by immunohistochemistry staining for α-smooth muscle actin. Cells were used within passage 1 to 4 to minimize overgrowth of other cell types.
HUVEC (10^4 cells/well) grown overnight in 96-well culture plates containing full growth medium with 2% FCS and weaned in growth medium without additives and 1% FCS over 24 hrs before treatment with NO donors and other agents in SM-GM without additives+0.1% BSA. Intracellular cGMP levels were determined according to the manufacturer's instructions using an enzyme immunoassay kit (Amersham Biosciences). In other experiments ASMC from wild type and CD36 or CD47 null mice were plated onto 96-well culture plates and incubated overnight in full growth medium. They were then weaned off serum as described to SM-GM+0.1% BSA and treated with NO donor and other agents as indicated. Intracellular cyclic nucleotides were determined via immunoassay.

human platelets [8] = test: cGMP in human platelets; format: cell-based; conditions: washed human platelets in Tyrode's buffer
Description: Fresh human platelets at 2×10^5 platelets/μl in Tyrode's buffer or PRP were pre-incubated with the indicated agents for 15 minutes and then challenged with DEA/NO for the indicated time interval at room temperature and total cGMP determined via immunoassay (Amersham, GE Healthcare, Buckinghamshire, UK). Murine WT and TSP1-null platelets were treated with DEA/NO and cGMP flux measured.

With `COC(=O)[C@H](CC(C)C)NC(=O)c1ccc(NC[C@@H](N)CS)cc1-c1cccc2ccccc12` [GGTI-298, reference compound] the “platelet aggregation at high shear in the presence of NO” value (human platelets [1]; GGTI-298 preincubation) was “preferentially delayed platelet aggregation”, the “thrombin-stimulated adhesion of platelets” value (human platelets [2]) was “selective in adhesion assays for blocking thrombin-stimulated adhesion of platelets on fibrinogen” and the “Rap1 activation (GTP loading)” value (Rap1) was “inhibits basal and partially inhibits thrombin-stimulated Rap1 activation”.

For `CNC[C@H](O)c1ccc(O)c(O)c1` [epinephrine, Epinephrine hydrochloride], the lethality ([3]; CD47 null animals, 0.05 μg/animal i.p.) was “fatal”, the mean arterial pressure ([3]; TSP1 null animals, 0.05 μg/animal i.p.) was “did not show a significant increase” and the mean pulse ([3]; after i.p. challenge) was “moderately increased”. For the same compound, the mean arterial pressure ([3]; wild type animals, 0.05 μg/animal i.p.) was “expected increase in mean arterial pressure” and the cutaneous perfusion ([4]; wild type and TSP1 null animals, epinephrine bolus) was “increased cutaneous perfusion”.

With `C[N+](C)(C)CCCCCC[N+](C)(C)C` [hexamethonium, hexamethonium chloride] the “cutaneous perfusion and survival after autonomic blockade” value ([4]; wild type and TSP1 null animals under isoflurane, 30 μg/gram i.v.) was “decreases in cutaneous perfusion and eventual cardiovascular collapse and death”.

For Biotin-IGWKGFTAYR [C6e], the “cGMP signaling IC50” value (NO/cGMP signaling) was “inactive” and the “NO-stimulated adhesion to type I collagen” value [5] was “not blocked”.

For FIRVVMYEGKK [7N3], the “NO-stimulated vascular cell outgrowth” value [6] was “inhibited vascular cell outgrowth”, the “concentration of maximal inhibition of NO-stimulated endothelial cell adhesion” value (HUVEC) was 10 µM and the “NO-stimulated endothelial cell adhesion on type I collagen” value (HUVEC; 1 h) was “inhibited NO-stimulated endothelial cell adhesion”. For the same compound, the “NO-stimulated cGMP” value ([7]; CD36 null MASMC) was “completely inhibited”, the “NO-stimulated cGMP” value ([7]; CD47 null MASMC) was “did not significantly inhibit” and the “concentration sufficient to significantly inhibit the NO delay” value (human platelets [1]; high shear) was 10 nM. The “NO delay of thrombin-induced platelet aggregation” value (human platelets [1]; high shear, thrombin 0.2 U/ml, DEA/NO 10 μM) was “blocked” and the “NO stimulated cGMP in platelets” value (human platelets [8]) was “partially inhibited”.

In the case of GAKDFTAYR [C6s], the “cGMP signaling IC50” value (NO/cGMP signaling) is reported as “inactive” and the “NO-stimulated adhesion to type I collagen” value [5] is reported as “not blocked”.
